Activity calls are given as the source filed them. No cut-off for these calls is given here.
What was measured:
Assay type in all cases: cell-based
Details in all cases: Hepatocyte
[1] = biological target: T1, Equilibrative nucleoside transporter 1 (Mus musculus) (UniProt Q9JIM1); test: Transport through ENT1 in mouse hepatocytes by oil filtration assay in presence 100 nM of transporter inhibitor NBMRP
T1 sequence (whole entry): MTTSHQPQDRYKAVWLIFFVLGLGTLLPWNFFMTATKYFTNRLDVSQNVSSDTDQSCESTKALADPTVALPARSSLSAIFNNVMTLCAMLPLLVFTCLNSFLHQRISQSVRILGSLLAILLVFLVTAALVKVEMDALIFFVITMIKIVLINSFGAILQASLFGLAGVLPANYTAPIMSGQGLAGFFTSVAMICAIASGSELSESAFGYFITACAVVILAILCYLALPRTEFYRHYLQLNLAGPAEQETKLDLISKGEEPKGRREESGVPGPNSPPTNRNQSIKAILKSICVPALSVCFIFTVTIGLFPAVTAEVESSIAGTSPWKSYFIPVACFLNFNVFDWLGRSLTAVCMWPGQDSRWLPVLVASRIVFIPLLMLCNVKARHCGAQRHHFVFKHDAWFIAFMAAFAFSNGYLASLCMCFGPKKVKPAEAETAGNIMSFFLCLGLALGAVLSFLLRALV

[2] = biological target: T2, Equilibrative nucleoside transporter 2 (Rattus norvegicus) (UniProt O54699); test: Transport through ENT2 in rat hepatocytes by oil filtration assay in presence of sodium ions in Kreb-henseleit buffer containing 100 uM NBMPR and 1 mM uridine
T2 sequence (whole entry): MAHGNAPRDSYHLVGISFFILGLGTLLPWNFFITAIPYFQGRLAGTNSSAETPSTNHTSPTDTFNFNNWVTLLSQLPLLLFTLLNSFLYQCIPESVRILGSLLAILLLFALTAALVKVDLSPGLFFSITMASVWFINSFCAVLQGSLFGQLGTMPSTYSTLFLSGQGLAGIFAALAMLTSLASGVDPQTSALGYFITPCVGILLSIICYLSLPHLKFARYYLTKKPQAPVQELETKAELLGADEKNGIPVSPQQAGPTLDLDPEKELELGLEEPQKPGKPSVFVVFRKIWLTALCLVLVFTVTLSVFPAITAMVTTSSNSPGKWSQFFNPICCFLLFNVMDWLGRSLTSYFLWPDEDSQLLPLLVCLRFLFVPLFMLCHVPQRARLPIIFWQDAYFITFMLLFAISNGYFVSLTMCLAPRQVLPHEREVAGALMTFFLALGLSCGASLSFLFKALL

[3] = biological target: T3, Equilibrative nucleoside transporter 1 (Rattus norvegicus) (UniProt O54698); test: Transport through ENT1 in rat hepatocytes by oil filtration assay in presence 100 nM of transporter inhibitor NBMRP
T3 sequence (whole entry): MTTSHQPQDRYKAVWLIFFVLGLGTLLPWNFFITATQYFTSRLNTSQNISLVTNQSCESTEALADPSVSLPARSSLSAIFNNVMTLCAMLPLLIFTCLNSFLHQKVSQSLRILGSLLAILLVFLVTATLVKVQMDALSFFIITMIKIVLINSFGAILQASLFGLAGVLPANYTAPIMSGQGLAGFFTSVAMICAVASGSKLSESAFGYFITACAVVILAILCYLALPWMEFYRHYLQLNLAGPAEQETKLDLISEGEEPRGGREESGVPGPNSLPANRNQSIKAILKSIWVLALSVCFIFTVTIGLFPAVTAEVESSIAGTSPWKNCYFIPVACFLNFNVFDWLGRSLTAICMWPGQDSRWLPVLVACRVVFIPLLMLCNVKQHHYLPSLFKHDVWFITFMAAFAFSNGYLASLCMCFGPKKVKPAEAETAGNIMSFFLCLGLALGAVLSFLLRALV

[4] = biological target: T1, Equilibrative nucleoside transporter 1 (Mus musculus); test: Transport through ENT1 in mouse hepatocytes by oil filtration assay in presence of sodium ions in Kreb-henseleit buffer
[5] = biological target: T4, Equilibrative nucleoside transporter 2 (Mus musculus) (UniProt Q61672); test: Transport through ENT2 in mouse hepatocytes by oil filtration assay in presence of sodium ions in Kreb-henseleit buffer
T4 sequence (whole entry): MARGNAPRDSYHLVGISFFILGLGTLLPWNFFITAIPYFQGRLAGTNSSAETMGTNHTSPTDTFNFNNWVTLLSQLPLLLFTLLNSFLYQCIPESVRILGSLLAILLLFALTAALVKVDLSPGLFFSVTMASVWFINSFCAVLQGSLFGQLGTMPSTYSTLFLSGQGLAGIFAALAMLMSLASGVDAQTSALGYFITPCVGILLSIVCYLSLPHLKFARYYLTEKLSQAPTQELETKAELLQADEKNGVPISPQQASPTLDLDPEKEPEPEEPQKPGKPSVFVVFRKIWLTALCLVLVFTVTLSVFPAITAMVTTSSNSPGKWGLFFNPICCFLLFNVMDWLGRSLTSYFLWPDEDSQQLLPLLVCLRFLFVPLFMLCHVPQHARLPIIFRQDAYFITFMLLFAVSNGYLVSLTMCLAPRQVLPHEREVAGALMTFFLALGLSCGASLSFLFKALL

[6] = biological target: T3, Equilibrative nucleoside transporter 1 (Rattus norvegicus); test: Transport through ENT1 in rat hepatocytes by oil filtration assay in presence of sodium ions in Kreb-henseleit buffer
[7] = biological target: T3, Equilibrative nucleoside transporter 1 (Rattus norvegicus); test: Transport through ENT1 in rat hepatocytes by oil filtration assay
[8] = biological target: T5, Sodium/nucleoside cotransporter 2 (Mus musculus) (UniProt O88627); test: Transport through CNT2 in mouse hepatocytes by oil filtration assay pre-incubated with 20 ng/mL rotenone for 15 mins and 2 mM 2-deoxyglucose for 10 mins at 37 degC in presence of sodium ions in Kreb-henseleit buffer containing 100 nM NBMPR
T5 sequence (whole entry): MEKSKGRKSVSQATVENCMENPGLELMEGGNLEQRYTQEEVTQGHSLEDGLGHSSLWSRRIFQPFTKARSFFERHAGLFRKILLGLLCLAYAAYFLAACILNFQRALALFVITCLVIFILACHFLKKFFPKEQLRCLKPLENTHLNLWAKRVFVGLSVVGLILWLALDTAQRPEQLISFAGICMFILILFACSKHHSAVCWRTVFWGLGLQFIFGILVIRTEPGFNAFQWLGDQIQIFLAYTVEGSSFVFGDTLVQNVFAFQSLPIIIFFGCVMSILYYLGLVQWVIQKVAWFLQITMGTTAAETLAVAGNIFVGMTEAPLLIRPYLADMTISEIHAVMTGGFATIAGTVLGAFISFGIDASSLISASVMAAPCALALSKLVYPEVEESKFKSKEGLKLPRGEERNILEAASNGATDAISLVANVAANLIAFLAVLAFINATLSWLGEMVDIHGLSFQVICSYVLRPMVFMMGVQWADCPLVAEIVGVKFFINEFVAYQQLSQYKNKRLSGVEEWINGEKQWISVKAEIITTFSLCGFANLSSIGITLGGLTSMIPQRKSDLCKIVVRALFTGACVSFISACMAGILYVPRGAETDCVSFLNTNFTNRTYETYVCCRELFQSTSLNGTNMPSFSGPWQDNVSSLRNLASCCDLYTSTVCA

Nc1ncnc2c1ncn2[C@@H]1O[C@H](CO)[C@@H](O)[C@H]1O
Activity [1]: inactive
Activity [2]: inactive
Activity [3]: inactive
Activity [4]: inactive
Activity [5]: inactive
Activity [6]: inactive
Activity [7]: inactive

NC(=O)c1ncn([C@@H]2O[C@H](CO)[C@@H](O)[C@H]2O)n1
Activity [1]: inactive
Activity [2]: inactive
Activity [3]: inactive
Activity [4]: inactive
Activity [5]: inactive
Activity [8]: Active
Activity [6]: inactive
Activity [7]: Active

Source: ChEMBL document CHEMBL1275601, “Striking species difference in the contribution of concentrative nucleoside transporter 2 to nucleoside uptake between mouse and rat hepatocytes” (Antimicrob Agents Chemother, 2010)
